From publication PMC8661056, “Synthesis and Evaluation of [^11C]7-Halogen-2-Phenyl Isoindolone Derivatives: Potential PET Radioligands for in vivo Imaging of 5-HT2C Receptors” (Frontiers in Neuroscience, 2021)

Tests used:
5-HT2B = 5-HT2B (Homo sapiens, UniProt P41595); test: competition binding assay (NIMH PDSP), 5-HT2B; details: mean of three experiments ± SD, read-out: Binding affinity Ki, 5-HT2B
D1-D5 = test: competition binding assay (NIMH PDSP), dopamine D1-D5; details: read-out: Binding affinity Ki, D1-D5
5-HT2A [1] = target: T1, 5-HT2A (Homo sapiens, UniProt P28223); test: competition binding assay (NIMH PDSP), 5-HT2A; details: read-out: Binding affinity Ki, 5-HT2A
5-HT2A [2] = target: T1, 5-HT2A; test: primary binding, 5-HT2A
From the text: (§1) We selected 6 and 9 for carbon-11 radiolabelling and PET imaging studies.

5-HT2C = target: T2, 5-HT2C (Homo sapiens, UniProt P28335); test: 5-HT2C competition binding assay with [^3H]mesulergine (NIMH PDSP); details: for Ki: competition with [^3H]mesulergine, mean of three experiments ± SD, read-out: Binding affinity Ki, 5-HT2C
T2 sequence (P28335 33-458): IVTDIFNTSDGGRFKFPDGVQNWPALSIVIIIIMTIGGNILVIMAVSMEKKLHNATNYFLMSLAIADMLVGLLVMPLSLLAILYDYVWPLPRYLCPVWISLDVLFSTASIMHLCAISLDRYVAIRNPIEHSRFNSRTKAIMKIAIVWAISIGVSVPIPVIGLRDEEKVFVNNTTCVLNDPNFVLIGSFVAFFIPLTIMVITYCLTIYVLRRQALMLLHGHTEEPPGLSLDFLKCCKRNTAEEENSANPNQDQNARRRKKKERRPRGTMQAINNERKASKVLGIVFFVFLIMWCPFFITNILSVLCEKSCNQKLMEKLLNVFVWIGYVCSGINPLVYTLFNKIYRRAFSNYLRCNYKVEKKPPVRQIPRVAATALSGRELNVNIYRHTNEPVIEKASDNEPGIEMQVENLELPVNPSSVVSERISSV
From the text: as §1

5-HT5–7 = test: competition binding assay (NIMH PDSP), 5-HT5–7; details: read-out: Binding affinity Ki, 5-HT5–7
5-HT1A = target: T3, 5-HT1A (Homo sapiens, UniProt P08908); test: competition binding assay (NIMH PDSP), 5-HT1A; details: read-out: Binding affinity Ki, 5-HT1A
T3 sequence (P08908 1-422): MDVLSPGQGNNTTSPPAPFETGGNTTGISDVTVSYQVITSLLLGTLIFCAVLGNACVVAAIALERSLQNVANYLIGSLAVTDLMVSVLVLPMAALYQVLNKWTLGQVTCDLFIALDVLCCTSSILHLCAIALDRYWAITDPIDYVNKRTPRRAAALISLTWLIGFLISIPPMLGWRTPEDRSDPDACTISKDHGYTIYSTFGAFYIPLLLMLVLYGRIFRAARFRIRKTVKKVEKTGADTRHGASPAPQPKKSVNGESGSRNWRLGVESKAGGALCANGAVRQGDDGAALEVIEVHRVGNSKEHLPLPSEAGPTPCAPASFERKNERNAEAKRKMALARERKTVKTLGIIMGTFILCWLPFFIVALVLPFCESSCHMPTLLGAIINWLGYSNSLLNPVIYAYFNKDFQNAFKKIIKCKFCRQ

[3] = set-up: method as in Hamprecht et al., 2007; details: ref Hamprecht et al., 2007; cited from earlier work
5-HT2CR = tested on: 5-HT2CR; set-up: method as in Neelamegam et al., 2014; details: PET imaging; ref Neelamegam et al., 2014; cited from earlier work

Chain of 5-HT2B (P41595 whole entry, species assumed): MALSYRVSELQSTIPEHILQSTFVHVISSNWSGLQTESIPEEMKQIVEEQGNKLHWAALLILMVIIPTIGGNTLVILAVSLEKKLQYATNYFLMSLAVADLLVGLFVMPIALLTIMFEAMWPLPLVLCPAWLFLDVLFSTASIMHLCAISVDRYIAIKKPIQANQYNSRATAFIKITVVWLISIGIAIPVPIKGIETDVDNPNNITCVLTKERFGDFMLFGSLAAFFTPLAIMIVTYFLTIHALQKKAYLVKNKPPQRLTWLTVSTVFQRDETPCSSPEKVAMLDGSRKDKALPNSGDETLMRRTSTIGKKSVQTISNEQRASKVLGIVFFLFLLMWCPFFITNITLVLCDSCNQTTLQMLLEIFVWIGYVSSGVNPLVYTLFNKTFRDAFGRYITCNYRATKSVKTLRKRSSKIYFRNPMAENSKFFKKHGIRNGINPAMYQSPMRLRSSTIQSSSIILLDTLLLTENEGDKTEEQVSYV
T1 sequence (P28223 whole entry, species assumed): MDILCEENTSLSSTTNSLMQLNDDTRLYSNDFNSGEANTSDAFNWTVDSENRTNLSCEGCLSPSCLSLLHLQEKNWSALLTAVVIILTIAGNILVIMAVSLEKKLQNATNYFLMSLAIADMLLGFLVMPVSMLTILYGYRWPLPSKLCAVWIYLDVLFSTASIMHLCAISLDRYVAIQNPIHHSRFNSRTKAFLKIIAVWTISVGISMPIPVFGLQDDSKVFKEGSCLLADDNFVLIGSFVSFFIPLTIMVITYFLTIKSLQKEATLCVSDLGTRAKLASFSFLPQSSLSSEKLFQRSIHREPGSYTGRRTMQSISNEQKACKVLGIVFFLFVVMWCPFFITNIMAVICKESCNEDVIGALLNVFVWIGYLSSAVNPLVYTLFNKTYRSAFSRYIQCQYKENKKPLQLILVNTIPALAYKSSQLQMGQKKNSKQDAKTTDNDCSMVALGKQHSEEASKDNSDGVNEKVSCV

SMILES	Ki (5-HT2B) [nM]	Ki (D1-D5) [nM]	Ki (5-HT2A [1]) [nM]	primary bindings at 5-HT2A (5-HT2A [2]) [%]	Ki (5-HT2C) [nM]	5-HT2C binding less than that for 9 (5-HT2C; relative to compound 9)	Ki (5-HT5–7) [nM]	Ki (5-HT1A) [nM]	brain permeability as measured by brain to blood plasma ratio [3]	non-specific binding in baboon brains (5-HT2CR)
COc1ccc(N2Cc3cccc(Cl)c3C2=O)cc1OCCN1CCC(C)CC1 [Compound 6, 7-chloro-2-[4-methoxy-3-[2-(4-methylpiperidin-1-yl)ethoxy]phenyl]isoindolin-1-one]	194 ± 74	> 1000	> 1000	< 50	2.2 ± 0.3	2–3 times	> 1000	> 1000	great	
c1cc2c3c(c1)[C@H]1CCC[C@H]1N3CCN[11CH2]2 [[^11C]WAY-163909]										high
c1cc2c3c(c1)[C@H]1CCC[C@H]1CN3CCN[11CH2]2 [[^11C]Vabicaserin]										high
COc1ccc(N2Cc3cccc(F)c3C2=O)cc1OCCN1CCC(C)CC1 [Compound 8]	434 ± 204	> 1000	> 1000		28 ± 14		> 1000	> 1000		
COc1ccc(N2Cc3cccc(I)c3C2=O)cc1OCCN1CCC(C)CC1 [Compound 9, 7-iodo-2-[4-methoxy-3-[2-(4-methylpiperidin-1-yl)ethoxy]phenyl]isoindolin-1-one]	126 ± 28	> 1000	> 1000	< 50	1.1 ± 0.3		> 1000	> 1000		
